Laboratory results as given in patent publication US10774063B2, “Materials and method for inhibiting replication protein A and uses thereof” (INDIANA UNIVERSITY RESEARCH AND TECHNOLOGY CORPORATION, priority 2014, dated 2020).
Read-outs that look alike come from different tables or passages of the source.

Legend:
[1] = Preliminary pharmacokinetic analysis; assay type: in vivo, mice
[2] = Safety and tolerability (body weight) in naive NOD/SCID mice; assay type: in vivo
Procedure: Referring now to in vivo analysis of TDRL-551, non-obese diabetic/severe combined immunodeficient mice (NOD/SCID) were obtained from The Jackson Laboratory. All animal studies were conducted under the guidelines of the NIH and were approved by the Institutional Animal Care and Use Committee of Indiana University School of Medicine. Animals were maintained under pathogen-free conditions and a 12-hour light-dark cycle. The safety and tolerability of TDRL-551 was assessed in naïve NOD/SCID mice. Mice were treated IP with increasing concentrations of TDRL-551 in a formulation consisting of 20% DMSO, 10% Tween 80, 70% PBS. Based on preliminary PK analysis and a half-life of ˜7 hours (data not shown) we administered 3 doses per week for two weeks and measured body weight every other day.

A2780 EOC cell line = experiment: Clonogenic survival assay in A2780 cells; assay type: cell-based; details: 48 hours treatment, 1-200 μM, read-out: Cellular IC50
Procedure: Referring now to cell culture, A2780 cells and A2780/R cells were purchased from Sigma. All other cell lines were from ATCC and routinely tested for mycoplasma contamination. Cells were maintained in RPMI media supplemented with 10% FBS (Atlanta Biological), penicillin and streptomycin. Cultures were incubated at 37° C. in 5% CO2 and sub-cultured 2-3 times per week.
(§1) Referring now to clonogenic survival assays, cells were plated in a 6 well (100,000 cells/well) or 24 well (25,000 cells/well) plate, incubated for at least 18 hours and then treated with Pt/etoposide and/or RPA inhibitors. After 48 hours of treatment, the cells were re-plated in 10 cm dishes (500-1000 cells/dish) and incubated for 8-10 days to allow colony formation. Plates were then washed with PBS, fixed with glutaraldehyde (Fisher Scientific) and stained with crystal violet (Acros Organics). The colonies were then counted using an Acolyte Synbiosis colony counter, viability determined versus vehicle controls which were plotted versus drug concentration.

A2780 cells = experiment: Assessment of synergy via combination index (Chou-Talalay), colony formation; assay type: cell-based; details: A2780, at 0.5 or higher fraction of cells affected
Procedure: as §1
Referring now to Assessment of Synergy via Combination Index, in the combination index studies, the A2780 cells were treated with RPA inhibitor and Pt/etoposide alone as well as the combination of both—the inhibitor and the DNA damaging chemotherapeutic agent. The range of treatment was dependent on the IC50 of each inhibitor/drug. If the IC50 was X, then the cells were treated at a range of X/4 to 3X concentration in a colony formation assay. […]

[3] = target: full length, heterotrimeric human RPA (fl-RPA) (Homo sapiens (Human), UniProt P27694); experiment: EMSA for inhibition of RPA-DNA binding activity (full length RPA)
Procedure: Referring to protein purification, full length, heterotrimeric human RPA (fl-RPA) was expressed in E. coli and purified by a three column procedure as previously described (See Patrick S M and Turchi J, Replication Protein A (RPA) Binding to Duplex Cisplatin-damaged DNA Is Mediated through the Generation of Single-stranded DNA. J Biol Chem 1999; 274:14972-8). The DBD-A/B construct was expressed as a SUMO-His6-RPA^181-432 fusion protein. E. coli BL21 (DE3) cells in log growth were induced for 3 hours with 0.5 mM IPTG at 37° C. The cells were lysed in buffer containing 50 mM Tris pH 7.5, 300 mM NaCl, 10% sucrose, 10 mM imidazole, 25 μg/ml lysozyme, 1 μg/ml leupeptin, 1 μg/ml pepstatin and 0.5 mM PMSF. The lysate was loaded onto a Ni-NTA column washed and then incubated overnight with wash buffer containing 3 μg/ml ULP1 protease to cleave the SUMO tag. The cleaved His6-RPA^181-432 was eluted from the Ni-NTA column with elution buffer containing 350 mM imidazole. The His6-RPA was then further purified on a size exclusion column (SEC) to remove the cleaved SUMO tag fragment. The SEC pool was then concentrated and stored at −80° C.
Referring now to Electrophoretic Mobility Shift Assays (“EMSA”), EMSA reactions (20 μL) were performed with 50 nM fl-RPA and 2.5 nM 5′[^32P]-labeled 34-base DNA in buffer containing 20 mM HEPES (pH 7.0), 1 mM DTT, 0.001% NP-40, 100 mM NaCl, 5 mM MgCl2 and 50 μg/ml bovine serum albumin (BSA). Chemical compounds, either purchased from ChemDiv or synthesized in the laboratory, were suspended in DMSO and titrated as detailed in each figure. The DMSO concentration in the reaction mixture was kept constant at or below 5%. RPA was incubated with inhibitor or DMSO control in reaction buffer for 30 minutes before the addition of DNA. Reactions were incubated for 5 minutes at room temperature and products separated via 6% native polyacrylamide gel electrophoresis. The bound and unbound fractions were then quantified by phosphor-imager analysis using ImageQuant software (Molecular Dynamics, CA) and IC50 values calculated by non-linear regression using SigmPlot (Sysat). For EMSA reactions with RPA DBD-A/B, 150 nM DBD-A/B was used and electrophoresis was performed at 4° C. All other conditions were identical to those described for the full length RPA.

[4] = EMSA, RPA incubated with compounds at 1-125 μM, read-out: In vitro IC50
[5] = compounds titrated at 1-125 μM, read-out: IC50 calculated from EMSA reactions

Chain of full length, heterotrimeric human RPA (fl-RPA) (P27694 whole entry, the tested form may be a part): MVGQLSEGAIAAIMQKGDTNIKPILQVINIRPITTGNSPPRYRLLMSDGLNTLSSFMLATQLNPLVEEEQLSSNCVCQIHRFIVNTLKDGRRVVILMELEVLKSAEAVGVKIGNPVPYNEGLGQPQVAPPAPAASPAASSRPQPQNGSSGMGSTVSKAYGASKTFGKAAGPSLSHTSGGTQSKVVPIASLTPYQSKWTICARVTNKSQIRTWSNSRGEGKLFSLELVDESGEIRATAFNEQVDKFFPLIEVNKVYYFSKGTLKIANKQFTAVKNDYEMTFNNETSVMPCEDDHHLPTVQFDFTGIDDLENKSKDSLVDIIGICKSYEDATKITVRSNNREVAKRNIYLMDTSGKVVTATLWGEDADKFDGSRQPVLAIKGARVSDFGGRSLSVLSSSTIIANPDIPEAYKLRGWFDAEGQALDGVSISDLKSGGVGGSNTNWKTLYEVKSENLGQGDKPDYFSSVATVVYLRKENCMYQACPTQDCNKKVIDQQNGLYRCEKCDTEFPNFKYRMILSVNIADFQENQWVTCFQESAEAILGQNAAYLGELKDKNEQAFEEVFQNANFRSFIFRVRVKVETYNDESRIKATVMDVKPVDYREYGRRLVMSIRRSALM
Chain of full length, heterotrimeric human RPA (fl-RPA) (P15927 whole entry partner, the tested form may be a part): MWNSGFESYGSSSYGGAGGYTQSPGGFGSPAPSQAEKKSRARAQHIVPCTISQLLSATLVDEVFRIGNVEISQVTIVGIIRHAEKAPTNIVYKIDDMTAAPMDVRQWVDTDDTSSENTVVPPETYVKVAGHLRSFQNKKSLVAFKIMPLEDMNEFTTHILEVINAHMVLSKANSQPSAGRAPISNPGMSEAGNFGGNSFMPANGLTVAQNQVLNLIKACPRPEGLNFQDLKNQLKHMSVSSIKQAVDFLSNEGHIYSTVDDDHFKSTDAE
Chain of full length, heterotrimeric human RPA (fl-RPA) (P35244 whole entry partner, the tested form may be a part): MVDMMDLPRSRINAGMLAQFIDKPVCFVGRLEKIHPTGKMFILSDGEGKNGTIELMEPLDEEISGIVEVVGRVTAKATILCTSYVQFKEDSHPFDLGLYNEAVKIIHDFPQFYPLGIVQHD

SMILES | IC50 [3, 4] [µM] | IC50 [3, 5] [µM] | further results
CCOc1ccc2cc(C3CC(c4ccc(I)cc4)=NN3C(=O)CCCC(=O)O)c(Cl)nc2c1 (centres unmarked) |  |  | half-life ([1]; NOD/SCID, mouse, plasma, preliminary PK analysis): ~7 h; plasma concentration achieved ([1]; initial pharmacokinetic analysis): > 20 µM; adverse effects / loss of weight ([2]; co-treatment with carboplatin, up to 200 mg/kg): no adverse effects or loss of weight; body weight change ([2]; intraperitoneal administration up to 200 mg/kg, 3 doses per week for two weeks): no weight loss observed; body weight change ([2]; intraperitoneal, 300 mg/kg): slight decrease in body weight; loss of weight ([2]; intraperitoneal, 300 mg/kg): ≤ 10%; IC50 (A2780 EOC cell line; Homo sapiens): 25 µM; combination index (CI) with cisplatin (A2780 cells): < 1
CCOc1ccc2cc(C3CC(c4ccc(I)cc4)=NN3c3cccc(C(=O)O)c3)c(Cl)nc2c1 (centres unmarked) [NG-01-02] | 75.5 |  | 
CCOc1ccc2cc(C3CC(c4ccc(I)cc4)=NN3c3ccc(C(=O)O)cc3)c(Cl)nc2c1 (centres unmarked) [NG-01-04] | > 100 |  | 
CCOc1ccc2cc(C3CC(c4ccc(I)cc4)=NN3C(=O)CCCCC(=O)O)c(Cl)nc2c1 (centres unmarked) [NG-01-24] | 7 |  | 
CCOc1ccc2cc(C3CC(c4ccc(I)cc4)=NN3C(=O)CCCCCC(=O)O)c(Cl)nc2c1 (centres unmarked) [NG-01-25] | 10 |  | 
COc1ccc2cc(C3CC(c4ccc(Br)cc4)=NN3C(=O)CCCC(=O)O)c(Cl)nc2c1 (centres unmarked) [TDRL-533] | > 50 |  | IC50 (A2780 EOC cell line): > 50 µM
COc1ccc2cc(C3CC(c4ccc(Br)cc4)=NN3C(=O)CCCCC(=O)O)c(Cl)nc2c1 (centres unmarked) [TDRL-534] | 35 |  | 
COc1ccc2cc(C3CC(c4ccc(F)cc4)=NN3C(=O)CCCCC(=O)O)c(Cl)nc2c1 (centres unmarked) [TDRL-539] | > 100 |  | 
COc1ccc2cc(C3CC(c4ccc(F)cc4)=NN3C(=O)CCCC(=O)O)c(Cl)nc2c1 (centres unmarked) [TDRL-540] | > 100 |  | 
CCOc1ccc2cc(C3CC(c4ccc(Br)cc4)=NN3C(=O)CCCCC(=O)O)c(Cl)nc2c1 (centres unmarked) [TDRL-543] | 25 |  | IC50 (A2780 EOC cell line): 50 µM
CC(C)Oc1ccc2cc(C3CC(c4ccc(Br)cc4)=NN3C(=O)CCCCC(=O)O)c(Cl)nc2c1 (centres unmarked) [TDRL-556] | 43 |  | 
CCOc1ccc2cc(C3CC(c4ccc(OC(F)(F)F)cc4)=NN3C(=O)CCCCC(=O)O)c(Cl)nc2c1 (centres unmarked) [TDRL-557] | 30 |  | 
CCOc1ccc2cc(C3CC(c4ccc(Br)nc4)=NN3C(=O)CCC(=O)O)c(Cl)nc2c1 (centres unmarked) [TDRL-617] | > 100 |  | 
CCOc1ccc2cc(C3CC(c4cccc(I)c4)=NN3C(=O)CCCCC(=O)O)c(Cl)nc2c1 (centres unmarked) [TDRL-652] | 15 |  | 
COc1ccc(C2CC(c3ccccc3)=NN2C(=O)CCCC(=O)O)cc1OC (centres unmarked) [a] |  | > 100 | 
COc1ccc(C2CC(c3ccc(C)cc3)=NN2C(=O)CCCC(=O)O)cc1OC (centres unmarked) [b] |  | > 100 | 
COc1ccc(C2=NN(C(=O)CCCC(=O)O)C(c3ccccc3OC)C2)cc1 (centres unmarked) [c] |  | > 100 | 
CCOc1ccc2cc(C3CC(c4ccc(Br)cc4)=NN3C(=O)CCCC(=O)O)c(Cl)nc2c1 (centres unmarked) [d] |  | 25 | 
CCOc1ccc2cc(C3CC(c4ccc(C)cc4)=NN3C(=O)CCC(=O)O)c(Cl)nc2c1 (centres unmarked) [e] |  | 80 | 
COc1ccc2cc(C3CC(c4ccc(Cl)cc4)=NN3C(=O)CCC(=O)O)c(Cl)nc2c1 (centres unmarked) [f] |  | 75 | 
COc1ccc(C2=NN(C(=O)CCC(=O)O)C(c3cc4ccc(OC)cc4nc3Cl)C2)cc1 (centres unmarked) [g] |  | > 100 | 
COc1ccc2cc(C3CC(c4ccc(OC)c(OC)c4)=NN3C(=O)CCC(=O)O)c(Cl)nc2c1 (centres unmarked) [h] |  | > 100 | 
COc1ccc2cc(C3CC(c4ccc(C)cc4)=NN3C(=O)CCCC(=O)O)c(Cl)nc2c1 (centres unmarked) [i] |  | > 100 | 
COc1ccc2cc(C3CC(c4ccc(Cl)cc4)=NN3C(=O)CCCC(=O)O)c(Cl)nc2c1 (centres unmarked) [j] |  | 60 | 
COc1ccc2cc(C3CC(c4ccc(OC)c(OC)c4)=NN3C(=O)CCCC(=O)O)c(Cl)nc2c1 (centres unmarked) [k] |  | > 100 | 
O=C(O)CCCC(=O)N1N=C(c2ccccc2)CC1c1cc2cc3c(cc2nc1Cl)OCCO3 (centres unmarked) [l] |  | > 100 | 
